Test results reported in publication PMC2263054, “Functional evolution of the vitamin D and pregnane X receptors” (BMC Evolutionary Biology, 2007).
Read-outs that look alike come from different tables or passages of the source.

Legend:
Xenopus laevis VDR = target: T1, Xenopus laevis VDR (Xenopus laevis, UniProt O13124); assay: luciferase reporter transactivation assay in HepG2-NTCP cells, GAL4/xlVDR LBD chimera with tk-UAS-Luc; type: cell-based; details: screening for activators, at least three concentrations of each drug
T1 sequence (O13124 90-422): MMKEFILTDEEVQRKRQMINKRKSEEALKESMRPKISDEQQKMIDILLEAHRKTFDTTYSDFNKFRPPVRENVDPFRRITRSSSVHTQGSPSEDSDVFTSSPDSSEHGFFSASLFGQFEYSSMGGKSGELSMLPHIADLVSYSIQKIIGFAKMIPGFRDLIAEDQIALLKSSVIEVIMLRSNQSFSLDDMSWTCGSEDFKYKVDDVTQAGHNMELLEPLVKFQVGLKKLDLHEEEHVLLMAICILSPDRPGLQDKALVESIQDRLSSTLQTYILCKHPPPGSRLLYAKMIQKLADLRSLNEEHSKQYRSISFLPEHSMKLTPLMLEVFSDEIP

Zebrafish VDR = target: T2, Zebrafish VDR (Danio rerio, UniProt Q9PTN2); assay: luciferase reporter transactivation assay in HepG2-NTCP cells, GAL4/zfVDR LBD chimera with tk-UAS-Luc; type: cell-based; details: screening for activators, at least three concentrations of each drug
T2 sequence (Q9PTN2 121-453): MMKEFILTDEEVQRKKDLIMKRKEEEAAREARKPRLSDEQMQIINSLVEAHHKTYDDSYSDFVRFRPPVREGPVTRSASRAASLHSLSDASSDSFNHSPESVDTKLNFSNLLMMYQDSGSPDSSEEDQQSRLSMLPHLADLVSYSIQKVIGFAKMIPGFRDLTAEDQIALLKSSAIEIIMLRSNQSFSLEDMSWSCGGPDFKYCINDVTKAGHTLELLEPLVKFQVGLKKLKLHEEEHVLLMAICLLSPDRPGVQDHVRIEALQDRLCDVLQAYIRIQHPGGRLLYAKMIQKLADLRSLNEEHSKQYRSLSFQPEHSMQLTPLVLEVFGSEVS

Sea lamprey VDR = target: T3, Sea lamprey VDR (Petromyzon marinus, UniProt Q7ZZY9); type: cell-based
T3 sequence (Q7ZZY9 92-406): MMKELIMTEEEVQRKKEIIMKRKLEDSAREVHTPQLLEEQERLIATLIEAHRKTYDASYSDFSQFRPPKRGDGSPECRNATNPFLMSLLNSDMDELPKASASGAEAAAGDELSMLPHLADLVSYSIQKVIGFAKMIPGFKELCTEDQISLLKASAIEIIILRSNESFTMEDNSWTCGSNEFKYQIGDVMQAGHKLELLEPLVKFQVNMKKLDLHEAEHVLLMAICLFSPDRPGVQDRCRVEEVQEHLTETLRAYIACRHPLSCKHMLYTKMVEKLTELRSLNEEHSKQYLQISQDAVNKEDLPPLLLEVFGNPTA

[1] = screening for activators, at least three concentrations of each drug

CCCCOC(=O)c1ccc(N)cc1 [n-Butyl 4-aminobenzoate]
Effect on Xenopus laevis VDR (Xenopus laevis VDR): No effect
Effect on zebrafish VDR (Zebrafish VDR): No effect
activation of ciVDR/PXR (Ciona VDR/PXR): activated
Effect on sea lamprey VDR (Sea lamprey VDR; [1]): No effect

NC(=O)N1c2ccccc2C=Cc2ccccc21 [carbamazepine]
activation of ciVDR/PXR (Ciona VDR/PXR): activated

CC(C)c1onc(-c2c(Cl)cccc2Cl)c1COc1ccc(/C=C/c2cccc(C(=O)O)c2)c(Cl)c1 [GW4064]
Effect on Xenopus laevis VDR (Xenopus laevis VDR): None of these three VDRs were activated
Effect on zebrafish VDR (Zebrafish VDR): None of these three VDRs were activated
Effect on sea lamprey VDR (Sea lamprey VDR; [1]): None of these three VDRs were activated

C[C@]12CC[C@H](O)CC1=CC[C@@H]1[C@@H]2CC[C@]2(C)C(=O)CC[C@@H]12 [DHEA]
Effect on Xenopus laevis VDR (Xenopus laevis VDR): No effect
Effect on zebrafish VDR (Zebrafish VDR): No effect
Effect on sea lamprey VDR (Sea lamprey VDR; [1]): No effect

C[C@H](CCC(=O)O)[C@H]1CC[C@H]2[C@@H]3CC[C@@H]4C[C@H](O)CC[C@]4(C)[C@H]3CC(=O)[C@]12C [12-Ketolithocholic acid]
Effect on Xenopus laevis VDR (Xenopus laevis VDR): No effect
Effect on zebrafish VDR (Zebrafish VDR): No effect
Effect on sea lamprey VDR (Sea lamprey VDR; [1]): No effect

C[C@]12CC[C@@H]3c4ccc(O)cc4CC[C@H]3[C@@H]1CC[C@@H]2O [17b-Estradiol, 17β-estradiol]
Effect on Xenopus laevis VDR (Xenopus laevis VDR): No effect
Effect on Xenopus laevis VDR (Xenopus laevis VDR; listed as 17β-estradiol): None of these three VDRs were activated
Effect on zebrafish VDR (Zebrafish VDR): No effect
Effect on zebrafish VDR (Zebrafish VDR; listed as 17β-estradiol): None of these three VDRs were activated
Effect on sea lamprey VDR (Sea lamprey VDR; [1]): No effect
Effect on sea lamprey VDR (Sea lamprey VDR; screening for activators, at least three concentrations of each drug, listed as 17β-estradiol): None of these three VDRs were activated

Clc1ccc(-c2nc3sccn3c2/C=N/OCc2ccc(Cl)c(Cl)c2)cc1 [CITCO]
Effect on Xenopus laevis VDR (Xenopus laevis VDR): No effect
Effect on zebrafish VDR (Zebrafish VDR): No effect
Effect on sea lamprey VDR (Sea lamprey VDR; [1]): No effect

CCCCC[C@H](O)/C=C/C=C\CCCCCCCC(=O)O [13(S)-Hydroxy-9Z,11E-octadecadienoic acid]
Effect on Xenopus laevis VDR (Xenopus laevis VDR): No effect
Effect on zebrafish VDR (Zebrafish VDR): No effect
Effect on sea lamprey VDR (Sea lamprey VDR; [1]): No effect

Hyperforin
Effect on Xenopus laevis VDR (Xenopus laevis VDR): No effect
Effect on zebrafish VDR (Zebrafish VDR): No effect
Effect on sea lamprey VDR (Sea lamprey VDR; [1]): No effect

CC(=O)N1CCN(c2ccc(OCC3COC(Cn4ccnc4)(c4ccc(Cl)cc4Cl)O3)cc2)CC1 (centres unmarked) [Ketoconazole]
Effect on Xenopus laevis VDR (Xenopus laevis VDR): No effect
Effect on zebrafish VDR (Zebrafish VDR): No effect
Effect on sea lamprey VDR (Sea lamprey VDR; [1]): No effect

C[C@H](CCC(=O)NCCS(=O)(=O)O)[C@H]1CC[C@H]2[C@@H]3[C@H](O)C[C@@H]4C[C@H](O)CC[C@]4(C)[C@H]3CC[C@]12C [Taurochenodeoxycholic acid]
Effect on Xenopus laevis VDR (Xenopus laevis VDR): No effect
Effect on zebrafish VDR (Zebrafish VDR): No effect
Effect on sea lamprey VDR (Sea lamprey VDR; [1]): No effect

C[C@]12CC[C@@H]3c4cc(O)c(O)cc4CC[C@H]3[C@@H]1CCC2=O [2-Hydroxyestrone]
Effect on Xenopus laevis VDR (Xenopus laevis VDR): No effect
Effect on zebrafish VDR (Zebrafish VDR): No effect
Effect on sea lamprey VDR (Sea lamprey VDR; [1]): No effect

CC(=O)N[C@@H](CSC/C=C(\C)CCC=C(C)C)C(=O)O [Acetyl-geranyl-cysteine]
Effect on Xenopus laevis VDR (Xenopus laevis VDR): No effect
Effect on zebrafish VDR (Zebrafish VDR): No effect
Effect on sea lamprey VDR (Sea lamprey VDR; [1]): No effect

CC(=O)N[C@@H](CSC/C=C(\C)CC/C=C(\C)CCC=C(C)C)C(=O)O [Acetyl-farnesyl-cysteine]
Effect on Xenopus laevis VDR (Xenopus laevis VDR): No effect
Effect on zebrafish VDR (Zebrafish VDR): No effect
Effect on sea lamprey VDR (Sea lamprey VDR; [1]): No effect

CCCc1c(OCCCCc2nnn[nH]2)ccc(C(C)=O)c1O [LY 171883]
Effect on Xenopus laevis VDR (Xenopus laevis VDR): No effect
Effect on zebrafish VDR (Zebrafish VDR): No effect
Effect on sea lamprey VDR (Sea lamprey VDR; [1]): No effect

C[C@]12CC[C@@H]3c4ccc(OS(=O)(=O)O)cc4CC[C@H]3[C@@H]1CC[C@@H]2O [Estradiol 3-sulfate]
Effect on Xenopus laevis VDR (Xenopus laevis VDR): No effect
Effect on zebrafish VDR (Zebrafish VDR): No effect
Effect on sea lamprey VDR (Sea lamprey VDR; [1]): No effect

N[C@@H](Cc1cc(I)c(O)c(I)c1)C(=O)O.O.O [3,5-Diiodo-L-tyroside dihydrate]
Effect on Xenopus laevis VDR (Xenopus laevis VDR): No effect
Effect on zebrafish VDR (Zebrafish VDR): No effect
Effect on sea lamprey VDR (Sea lamprey VDR; [1]): No effect

CCOP(=O)(OCC)C(=Cc1cc(C(C)(C)C)c(O)c(C(C)(C)C)c1)P(=O)(OCC)OCC [SR12813]
Effect on Xenopus laevis VDR (Xenopus laevis VDR): No effect
Effect on zebrafish VDR (Zebrafish VDR): No effect
Effect on sea lamprey VDR (Sea lamprey VDR; [1]): No effect

C[C@]12CCC(=O)C=C1CC[C@@H]1[C@@H]2C(=O)C[C@@]2(C)[C@H]1CC[C@]2(O)C(=O)CO [Cortisone]
Effect on Xenopus laevis VDR (Xenopus laevis VDR): No effect
Effect on zebrafish VDR (Zebrafish VDR): No effect
Effect on sea lamprey VDR (Sea lamprey VDR): No effect

CC(C)(O)[C@H]1O[C@H]2CC[C@@]3(C)[C@@](O)(CC[C@H]4Cc5c([nH]c6ccccc56)[C@@]43C)C2=CC1=O [Paxilline]
Effect on Xenopus laevis VDR (Xenopus laevis VDR): No effect
Effect on zebrafish VDR (Zebrafish VDR): No effect
Effect on sea lamprey VDR (Sea lamprey VDR; [1]): No effect

CCC[C@@H](C)[C@H]1CC[C@H]2[C@@H]3[C@H](O)C[C@@H]4C[C@H](O)CC[C@]4(C)[C@H]3C[C@H](O)[C@]12C [5b-Cholan-3a,7a,12a-triol]
Effect on Xenopus laevis VDR (Xenopus laevis VDR): No effect
Effect on zebrafish VDR (Zebrafish VDR): No effect
Effect on sea lamprey VDR (Sea lamprey VDR; [1]): No effect

CC(=O)[C@@]1(O)CC[C@H]2[C@@H]3CC=C4C[C@@H](O)CC[C@]4(C)[C@H]3CC[C@@]21C [17-Hydroxypregnenolone]
Effect on Xenopus laevis VDR (Xenopus laevis VDR): No effect
Effect on zebrafish VDR (Zebrafish VDR): No effect
Effect on sea lamprey VDR (Sea lamprey VDR; [1]): No effect

C[C@@]12C=CC[C@H]1[C@@H]1CCC3=CC(=O)CC[C@]3(C)[C@H]1CC2 [4,16-Androstadien-3-one]
Effect on Xenopus laevis VDR (Xenopus laevis VDR): No effect
Effect on zebrafish VDR (Zebrafish VDR): No effect
Effect on sea lamprey VDR (Sea lamprey VDR; [1]): No effect

C[C@]12CC[C@@H](O)C[C@@H]1CC[C@@H]1[C@@H]2CC[C@]2(C)[C@@H](O)CC[C@@H]12 [5a-Androstan-3a,17b-diol]
Effect on Xenopus laevis VDR (Xenopus laevis VDR): No effect
Effect on zebrafish VDR (Zebrafish VDR): No effect
Effect on sea lamprey VDR (Sea lamprey VDR; [1]): No effect

CC(C)=CCC[C@@H](C)[C@H]1CC[C@@]2(C)C3=C(CC[C@]12C)[C@@]1(C)CC[C@H](O)C(C)(C)[C@@H]1CC3 [Lanosterol]
Effect on Xenopus laevis VDR (Xenopus laevis VDR): No effect
Effect on zebrafish VDR (Zebrafish VDR): No effect
Effect on sea lamprey VDR (Sea lamprey VDR; [1]): No effect

CC(C)=CCC/C(C)=C/CC/C(C)=C/CSCC(=O)O [Farnesylthioacetic acid]
Effect on Xenopus laevis VDR (Xenopus laevis VDR): No effect
Effect on zebrafish VDR (Zebrafish VDR): No effect
Effect on sea lamprey VDR (Sea lamprey VDR; [1]): No effect

C[C@H](CCC(=O)NCCS(=O)(=O)O)[C@H]1CC[C@H]2[C@@H]3CC[C@@H]4C[C@H](OS(=O)(=O)O)CC[C@]4(C)[C@H]3CC[C@]12C [Taurolithocholic acid 3-sulfate]
Effect on Xenopus laevis VDR (Xenopus laevis VDR): No effect
Effect on zebrafish VDR (Zebrafish VDR): No effect
Effect on sea lamprey VDR (Sea lamprey VDR; [1]): No effect

CC(=O)[C@H]1CC[C@H]2[C@@H]3CC[C@H]4C[C@H](O)CC[C@]4(C)[C@H]3CC[C@]12C [5a-pregnan-3a-ol-20-one]
Effect on Xenopus laevis VDR (Xenopus laevis VDR): No effect
Effect on zebrafish VDR (Zebrafish VDR): No effect
Effect on sea lamprey VDR (Sea lamprey VDR; [1]): No effect

17-Hydroxyprogesterone
Effect on Xenopus laevis VDR (Xenopus laevis VDR): No effect
Effect on zebrafish VDR (Zebrafish VDR): No effect
Effect on sea lamprey VDR (Sea lamprey VDR; [1]): No effect

C#C[C@]1(O)CC[C@H]2[C@@H]3CCc4cc(O)ccc4[C@H]3CC[C@@]21C [Ethinyl estradiol]
Effect on Xenopus laevis VDR (Xenopus laevis VDR): No effect
Effect on zebrafish VDR (Zebrafish VDR): No effect
Effect on sea lamprey VDR (Sea lamprey VDR; [1]): No effect
